Consider 3 molecules from patent US20250179519A1, “PROCESS TO ENHANCE VIRAL VECTOR PRODUCTION IN CELL-CULTURE USING GLYCYL-GLUTAMINE” (Evonik Operations GmbH, priority 2022, published 2025).

Data set [1] concerns AAV8 production in HEK Expi293F cells. The data set is described as follows: AAV8 capsid titer from supernatant by ELISA. Format: cell-based. The conditions noted are these: 96 h and 120 h post transfection. The protocol: A lab study to evaluate the influence of glutamine-dipeptides on viral vector production (AAV8) was conducted. HEK293 cells (HEK Expi293F cells, Thermo Fisher Scientific) were pre-cultured in shake flasks in a commercial culture medium recommended for viral vector production (Freestyle F17 Expression medium, Gibco, Thermo Fisher Scientific). After thawing the cells in 20 ml of the respective media variant (final concentration of glutamine or glutamine dipeptide in media variants was 8 mM) in 125 mL shake flasks, they were cultivated for five passages at 37° C. (185 rpm/50 mm orbit, 5% CO2) following a passaging rhythm of 3-4 days. […]
(§1) To analyze cell culture performance in the different media supplementations viable cell density and viability were determined via automated cell counter. Ammonium (fluorometric approach) as well as glucose and lactate concentration (enzymatic-amperometric method) were determined during preculture and AAV8 production phase on samples from one shake flask per supplement. Transfection efficiency was determined via GFP expression by flow cytometry 48, 72 and 96 h post-transfection. For AAV8 titer determination, samples of all replicates (supernatants only) were taken 96 and 120 h post-transfection and analyzed via qPCR (genomic titer) and ELISA (capsid titer).
In general terms: An ELISA detects its analyte on a solid surface through an enzyme-linked reagent.

The test system of another data set is mouse hybridoma (CC9C10). The conditions noted are these: CC9C10 culture; Gly-Gln 20 mM, Ala-Gln 6 mM; cited from earlier work.
The subject of data set [2] is AAV8 production in HEK Expi293F cells. As to the kind of experiment: Genomic AAV8 titer from supernatant by qPCR. The format is cell-based. The following applies: 8 mM supplement; for genomic AAV8 titer: supernatant. On the procedure: (§2) A lab study to evaluate the influence of glutamine-dipeptides on viral vector production (AAV8) was conducted. HEK293 cells (HEK Expi293F cells, Thermo Fisher Scientific) were pre-cultured in shake flasks in a commercial culture medium recommended for viral vector production (Freestyle F17 Expression medium, Gibco, Thermo Fisher Scientific). After thawing the cells in 20 ml of the respective media variant (final concentration of glutamine or glutamine dipeptide in media variants was 8 mM) in 125 mL shake flasks, they were cultivated for five passages at 37° C. (185 rpm/50 mm orbit, 5% CO2) following a passaging rhythm of 3-4 days. For production, cells were split into three replicates each with a seeding viable cell density of 2×10^6 cells/mL (day 0) in 22 mL of the respective media variant. They were transfected with polyethylenimine (PEI MAX, Polysciences) with a 2-plasmid system for AAV8 (Plasmid Factory) featuring green fluorescent protein (GFP) as gene of interest 24 hours after inoculation (day 1). Again, media variants were supplemented by glutamine (Gln), alanyl-glutamine (Ala-Gln, via the liquid supplement, GlutaMAX™, Gibco, Thermo Fisher Scientific) or glycyl-glutamine hydrate (Gly-Gln, cQrex® GQ, Evonik Operations) to a final concentration glutamine or glutamine dipeptide of 8 mM (each n=3).
as §1

The conditions of data set [3]: compared with glutamine; cited from earlier work.
A further data set deals with HEK Expi293F cells. The data set is described as follows: Transfection efficiency via GFP expression by flow cytometry. The format is cell-based. The following applies: for transfection efficiency: 96 h post transfection, 8 mM supplement. On the procedure: as §2, §1
(In general: A flow cytometer gives signals particle by particle.)

The subject of data set [4] is AAV8 production in HEK Expi293F cells. The data set is described as follows: Full/empty ratio (genomic titer vs. capsid titer). The conditions noted are these: from mean values. The format is cell-based. On the procedure:
In a preferred embodiment, the “full/empty ratio” shall be defined as viral genome titer (vg) divided by viral particle titer (vp). A suitable method to determine vg is quantitative polymerase chain reaction (qPCR). A suitable method to measure vp titer including intact virions and empty capsids is serotype-specific enzyme-linked immunosorbent assay (ELISA).
as §1
The full/empty ratio (ratio genomic titer in vg/mL vs. capsid titer in vp/mL) was calculated using the mean values for both sampling points (FIG. 11). The full/empty ratio varied between 14-22% for the 96 h post transfection time point and between 13-21% for the 120 h post transfection time point. […]

For data set [5] the following is noted: at 20° C. in water; cited from earlier work.

Peptide text beside a SMILES is read from it.

Regarding `C[C@H](N)C(=O)N[C@@H](CCC(N)=O)C(=O)O` [Ala-Gln, alanyl-glutamine, reference compound] (H-Ala-Gln-OH), the “capsid titer compared to cultures supplemented with Gln” value in data set [1] was “higher capsid titers”. In the data set on mouse hybridoma (CC9C10), the cell yields result was “high cell yields” and the monoclonal antibody production result is reported as “comparable”. In data set [2], the “genomic titer, comparison between supplements” value is recorded as “comparable to the other processes”. Also, the “stability during autoclaving and storage” value in data set [3] is “comparably stable”. Besides, in the data set on HEK Expi293F cells, the transfection efficiency is listed as 98%.
For the molecule `NC(=O)CC[C@H](N)C(=O)O` [Gln, L-glutamine], the monoclonal antibody production entry with mouse hybridoma (CC9C10) was “comparable”. The molecule further had a transfection efficiency with HEK Expi293F cells of 98%.
One may read the solubility as the concentration that dissolves in the medium under given conditions. As for `NCC(=O)N[C@@H](CCC(N)=O)C(=O)O.O` [Gly-Gln, Glycyl-L-Glutamine hydrate] (H-Gly-Gln-OH), in data set [1], the “capsid titer compared to cultures supplemented with Gln” value was “higher capsid titers”. Further, in the data set with mouse hybridoma (CC9C10), the cell yields result is “high cell yields”. The monoclonal antibody production result with mouse hybridoma (CC9C10) is “comparable”. For the same molecule, the “genomic AAV8 titer” value in data set [2] (96 h post transfection) is on record as 7.3×10^10 vg/mL; in data set [2] (120 h post transfection), 8.2×10^10 vg/mL. Moreover, in data set [3], the “stability during autoclaving and storage” value is “comparably stable”. The full/empty ratio in data set [4] (96 h post transfection) is reported as 22%; in data set [4] (120 h post transfection), 21%. For the same molecule, the transfection efficiency with HEK Expi293F cells worked out at 98%. The “transfection efficiency, comparison between supplements” value in the data set with HEK Expi293F cells (Gln vs Ala-Gln vs Gly-Gln, 8 mM) is “highest transfection efficiency”. In addition, the “relative fluorescence, comparison between supplements” value in the data set on HEK Expi293F cells (all sampling points (48, 72, 96 h)) is reported as “highest relative fluorescence”. In addition, in data set [5], the solubility was 154 mg/mL.
